Experimental data: patent US10711002B2, “Purine compounds and method for the treatment of cancer” (THE ROYAL INSTITUTION FOR THE ADVANCEMENT OF …, priority 2016, dated 2020)

Experiments:
cell cycle = test: Cell cycle analysis (FACS, propidium iodide staining); type: cell-based
Protocol: Cell cycles were synchronized prior to treatment through overnight serum deprivation. After treatment, cells were fixed and permeabilized using BD Cytofix/Cytoperm reagent (BD Bioscience), washed with PBS, and treated with 100 μg/ml Bovine Pancreas RNase A (US Biological). Cells were then stained with 25 μg/ml propidium iodide (Sigma) for 15 minutes and then immediately analyzed by flow cytometry using BD FACScalibur. The data was analyzed using FCS Express software.
It was observed during Compound 1 treatment that the targeting effect against stem-like cells is visibly associated with morphological changes resembling cell polyploidization, the accumulation of multiple DNA copies in a cell. This biological phenomenon sometimes occur as part of cell differentiation and is often associated with disruption of normal cell cycle. The identification of Aurora kinases (described below) as targets of Compound 1 supports the possible impact on cell division. Therefore the effect of Compound 1 on cell cycle using FACS analysis to measure propidium iodide staining was investigated.

cell mobility = test: Live cell locomotion assay; type: cell-based; conditions: moderate doses; 10 ng/mL EGF stimulation
Protocol: Cells were seeded at very low density on multi-well chambered coverglass (LabTek, Rochester, N.Y., USA). After starving, cells were stimulated with 10 ng/mL EGF and plated on a heated humidified stage supplied with 5% CO2. Phase contrast time-lapse images were captured every five minutes for three hours by optimized Nipkow spinning disk confocal microscope (WaveFx spinning disk, Quorum Technologies Inc, Guelph, ON, Canada). Cell motility was measured by tracing the cell periphery manually using Volocity software (Perkin Elmer, Waltham, Mass., USA).
To further confirm Compound 1's anti-metastatic potential, we conducted a live cell locomotion assay to quantify cell movement speed.

BT-20 cells = test: Tumorsphere formation; type: cell-based; conditions: BT-20, 1 μM for 72H, reseeded in suspension
Protocol: (§1) Cancer cell lines: MDA-MB-231, BT-20, Panc-1, OVCAR-3, 4T1 and RENCA were obtained from ATCC. Epithelial breast adenocarcinoma cell line PMC42-LA, were kindly provided by Dr. Ackland. Mia-Paca cells were kindly provided by Dr. George Zogopoulos. All cancer cell lines were cultured in RPMI1640× with 10% fetal bovine serum with 1% penicillin/streptomycin, and maintained at 37° C. in 5% atmosphere of CO2. In the case of growth factor stimulation, cells were serum starved for no longer than 12H, and then stimulated with 20 ng/ml EGF for 40 minutes.
(§2) After treatment with 1 μM Compound 1 for 72H, MDA-MB-231 and BT-20 cells were digested with 0.25% trypsin and reseeded at 2.5×10^4 cells/ml in 60 mm Ultralow Adherence plates (Corning) in DMEM/F12 supplemented with 5 ug/ml human insulin, 20 ng/ml human epidermal growth factor, 0.5 ug/ml hydrocortisone and 2% B27 (Invitrogen). Tumorspheres were then visualized (FIG. 1A) and then quantified (FIG. 1B). An important feature of cancer stem-like cells is their enhanced tumorsphere forming potential when grown in suspension. The tumorsphere forming capacity of Compound 1-treated MDA-MB-231 and BT-20 were analyzed in FIG. 1A. Consistent with previous characterization of these cells, in the absence of Compound 1, both MDA-MB-231 and BT-20 are capable of propagating as small individual tumorspheres that survive passaging.

MDA-MB-231 cells = test: Tumorsphere formation; type: cell-based; conditions: MDA-MB-231, 1 μM for 72H, reseeded in suspension
Protocol: as §1, §2

Panc-1 cells = test: Clonogenic assay; type: cell-based; conditions: Panc-1, 6 days of incubation
Protocol: as §1
(§3) Clonogenic assays were also performed using standard techniques as previously described. Briefly, cells were harvested from exponential-phase cultures, counted and plated at densities of 200 cells per well of a 12-well plate. Twenty-four hours after plating, the compounds were delivered once at the mentioned concentration. Negative control was carried out by treating the cells with DMSO. After 6 days of incubation in the presence of the compounds, the cells were stained with 0.5% crystal violet in absolute ethanol, and colonies were counted using the machine GelCount™ Tumor Colony Counter from Oxford Optronix Ltd. Each experiment was done in triplicates.

OVCAR-3 cells = test: Clonogenic assay; type: cell-based; conditions: OVCAR-3, 6 days of incubation
Protocol: as §1, §3

BT20 cells = test: Clonogenic assay; type: cell-based; conditions: BT20, 6 days of incubation
Protocol: as §1, §3

[1] = test system: breast cancer metastasis to the lung; test: In vivo invasive breast cancer models, metastasis to the lung; conditions: 30 mg/kg and below given bi-weekly for 3 weeks
Description: These kinases are directly involved in pathways controlling cell differentiation programs, metastasis signaling, as well as EMT and CSC programming and their overexpression was reported to predict decreased metastasis-free survival.
In vivo studies were approved by McGill Animal Care Committee. Cells growing in exponential phase of growth (1×10^6 cells/mouse) were transplanted into the mammary fat pad of female SCID (MDA231/M) or Balb/c (4T1) mice. Mia-PaCa cells and RENCA cells were implanted subcutaneously in SCID or Balb/c mice respectively. When primary tumors became palpable mice were randomized and blindly assigned treatment groups. […] Control mice received the vehicle alone (1% DMSO in physiologic solution). […] Tumor size was measured using a caliper. At the study termination (60-90 days) primary tumors were excised and weighted. The lungs were fixed in 10% Bouin's fixative and lung surface metastases were counted using a stereomicroscope.

Pilot toxicity study = type: in vivo, mice; conditions: doses even superior to 30 mg/kg, PO, 3 times a week, 4 cycles
Description: (§4) In vivo studies were approved by McGill Animal Care Committee. Cells growing in exponential phase of growth (1×10^6 cells/mouse) were transplanted into the mammary fat pad of female SCID (MDA231/M) or Balb/c (4T1) mice. Mia-PaCa cells and RENCA cells were implanted subcutaneously in SCID or Balb/c mice respectively. When primary tumors became palpable mice were randomized and blindly assigned treatment groups. Treatment was given PO for 4 cycles (3 times a week: day 1, day 3, day 5) (n=8-10 mice per condition). Control mice received the vehicle alone (1% DMSO in physiologic solution). […] Tumor size was measured using a caliper. At the study termination (60-90 days) primary tumors were excised and weighted. The lungs were fixed in 10% Bouin's fixative and lung surface metastases were counted using a stereomicroscope.

[2] = test system: MDA-231/M (human triple-negative breast cancer); test: In vivo distant metastasis and primary tumor growth, orthotopic transplant; conditions: MDA-231/M in SCID mice, PO
Description: as §4

[3] = test system: 4T1/M (triple-negative breast cancer); test: as above; conditions: 4T1/M in Balb/c mice, PO
Description: as §4

Row | Structure (SMILES) | accumulation of polyploidic cells (cell cycle) | limitation of the rate of cell mobility (cell mobility) | viable tumorspheres (BT-20 cells) | viable tumorspheres (MDA-MB-231 cells) | colony forming ability (Panc-1 cells) | colony forming ability (OVCAR-3 cells) | colony forming ability (BT20 cells) | inhibition of breast cancer metastasis to the lung [1] | body weight loss (Pilot toxicity study) | toxicity (Pilot toxicity study) | Primary tumor weight ([2]; at study termination) | Inhibition of distant metastasis (% control) ([2]; lung surface metastases) | Primary tumor weight ([3]; at study termination) | Inhibition of distant metastasis (% control) ([3]; lung surface metastases)
1 | O=c1c2ccccc2[se]n1-c1nc(NC2CCCCC2)c2nc[nH]c2n1 [Compound 1] | induces a dose-dependent accumulation of polyploidic cells | 2-3 fold | dramatic reduction in viable tumorspheres | dramatic reduction in viable tumorspheres | – | – | – | – | – | – | – | – | – | –
2 | O=c1c2ccccc2[se]n1-c1nc(N[C@H]2CC[Se]C2)c2nc[nH]c2n1 [Compound 4] | – | – | – | – | Significant reduction | Significant reduction | Significant reduction | more than 50% | no body weight loss | no apparent toxicity | 0.2 ± 0.08 g | 45-61% | 0.5 ± 0.10 g | 75-82%
